Experimental data: patent US20170349533A1 (F.I.S.- FABBRICA ITALIANA SINTETICI S.P.A, priority 2014, published 2017)
“And” between values parts separate entries of the source, which are not always exact repeats. Equal entries are not always repeated. “Also recorded” adds a separate entry of the source.

Columns and labels:
[1] = Kinetic solubility study at pH 4.5 (acetic acid/sodium acetate buffer, HPLC area); conditions: for Encl. Citr. average / solubility at pH 4.5 compared with Enclomiphene citrate having non-needle crystals: pH 4.5
Procedure: (§1) Solubility was determined by HPLC analysis, by comparison of the area corresponding to Enclomiphene HPLC peak.
(§2) To carry out the solubility studies, 400 mg of each product (not grinded) was stirred in water (24 ml, 60v) under the same conditions of stirring speed (magnetic stirring at 1000 rpm with a 2 cm “rugby shape” stir bar), flask used (round bottom flask of 50 ml of capacity with a 29/32 neck), etc. Alliquotes of ca 6 ml of suspension were filtered at different times: 15, 45, 90 and 180 min. After filtration, mother liquors were directly analyzed by HPLC (doing 2 replicates for each analysis) and its pH was determined. The filtered solid was analyzed by XRPD. The solubility analysis was repeated for each product and comparison of solubility was determined by the differences of HPLC area.
Solubility at a slightly acid medium was determined at pH 4.5 buffer used was a mixture acetic acid/sodium acetate prepared according to USP specifications.

[2] = Particle size distribution by laser diffraction, wet dispersion; format: physicochemical
Excerpt: Different techniques can be used in order to determine the population size distribution (Microscopy image analysis, sieving, sedimentation . . . ). However laser diffraction particle size analyzer using light scattering is one of the most widely used. It is worth noting that each technique is liable to generate a different mean diameter as well as measuring different properties of the particle. Therefore it is very important to indicate the used technique when a result of mean size is given.
Particle size analysis by laser diffraction analyzer can be performed in wet or dry dispersion. However wet dispersion was selected because: • it allows to use only a small amount of sample, • it is recommended for fragile particles such as organic crystals.
Particle size distribution was analyzed in a Beckman Coulter LS13320 apparatus equipped with an Universal Liquid Module.
The particles have to be insoluble in the liquid used for the wet dispersion to avoid dissolution during the measurement.
40 mg of the sample were stirred in 25 ml of water and 3 drops of Triton X100 (to improve the wettability of the crystals and to avoid agglomeration during the analysis). If necessary, ultrasonic irradiation (bath 30 kHz and 200 W) was used for short time in order to break up any agglomerates or aggregates.

[3] = Hygroscopicity by DVS (Dynamic Vapour Sorption); format: physicochemical; conditions: 25° C.; for water uptake at 95% RH: 0-95% RH
Procedure: This is a gravimetric technique that measures how much water is absorbed or desorbed by a sample at different relative humidity (RH). At each RH, the sample mass must be allowed to reach gravimetric equilibrium (or surpassed time limit) before progressing to the next humidity level. Sorption and desorption isotherms will be performed at 25° C. over a range of 0-95% RH. The type of sorption isotherm is determined by the pore size and surface character of the material.

[4] = Bulk and tapped density (in-house method, filled space of 500 mg in a test tube); format: physicochemical
Procedure: Density was determined by an in-house method measuring the filled space by a sample of 500 mg in a test tube before and after hitting the tube (bulk and tapped density, respectively):
The compressibility index calculated from bulk and tapped densities can be used to estimate the flow characteristics of the powder. Following the rule described in the article Chem Eng 1965; 72:163-168, it can be considered that the flow character should be: • Excellent for Enclomiphene base having prismatic shaped crystal habit, • Passable for Enclomiphene base having non-prismatic shaped crystal habit (of example 19).

[5] = Flowability through a glass funnel (in-house method); format: physicochemical
Procedure: Flowability was determined by an in-house method using a glass funnel (diameter 80 mm-stem diameter 10 mm-stem length 75 mm) with approximately 5 g of product repeating the process three times (in the cases in which flowability was observed). Different parameters were observed: • Flow or not • Need of percussion • Time to pass through the funnel

[6] = Filterability of suspension in ethanol; format: physicochemical; conditions: 40 mL of suspension in ethanol, on paper over a Buckner
Procedure: Enclomiphene having prismatic shaped crystal habit is indeed very well filterable, since, for example, the filtration (on paper over a Buckner) of 40 mL of suspensions containing of said solid in ethanol takes only 10 seconds.

[7] = Stability study of crystal habit by microscopy, three stability conditions for 30 days; format: physicochemical; conditions: 30 days at 60% RH, 75% RH-40° C., 95% RH
Excerpt: (B), and 95% RH (C), with reflected light (left) and transmitted light (right) (scale 500 μm).
Microscopy analysis of Enclomiphene base having prismatic shaped crystal habit exposed to three stability conditions for 30 days indicated the same colorless transparent prism as the starting product.

[8] = Kinetic solubility study in water (HPLC area of Enclomiphene peak)
Procedure: as §1
For each solubility study, the following parameters were monitored: • intensity of Enclomiphene peak for each replicate of the assay • average value • standard deviation.
as §2
Below an HPLC method that allow to have a fast determination of Enclomiphene solubility:
These HPLC conditions were used to perform solubility analysis.

[9] = water + Triton X100, without sonication, listed as Enclomiphene having prismatic shaped crystal habit
[10] = water + Triton X100, without sonication, listed as Sample 724
[11] = water + Triton X100, without sonication, listed as batch 724
[12] = first run (example 19: with constant percussion)
[13] = first run, approx. 5 g, glass funnel
[14] = water + Triton X100, without sonication, listed as Sample 725
[15] = water + Triton X100, without sonication, listed as batch 725

SMILES: CCN(CC)CCOc1ccc(/C(=C(/Cl)c2ccccc2)c2ccccc2)cc1 [Enclomiphene acetate]
- Encl. Citr. average ([1]; 0 min): 0 HPLC area
- Encl. Citr. average ([1]; 15 min): 14069 HPLC area
- Encl. Citr. average ([1]; 45 min): 13771 HPLC area
- Encl. Citr. average ([1]; 90 min): 13708 HPLC area
- Encl. Citr. average ([1]; 180 min): 13196 HPLC area

SMILES: CCN(CC)CCOc1ccc(/C(=C(/Cl)c2ccccc2)c2ccccc2)cc1 [Enclomiphene base (example 18), Enclomiphene]
- PSD D10 [2, 9]: 80 μm
- PSD D90 [2, 9]: 770 μm
- PSD D10 [2, 10]: 81.89 μm
- PSD D90 [2, 10]: 770 μm
- PSD Mean [2, 10]: 374.3 μm
- PSD Median (D50) [2, 10]: 306.4 μm
- PSD Mode [2, 10]: 356.1 μm
- PSD Mean [2, 11]: 374.3 μm
- PSD Median (D50) [2, 11]: 306.54 μm
- hygroscopicity (in words) ([3]; whole range 0-95% RH): not hygroscopic
- filled space of 500 mg in test tube ([4]; filled space of 500 mg in a test tube after hitting the tube, listed as Enclomiphene (example 18)): 8 mm
- filled space of 500 mg in test tube ([4]; filled space of 500 mg in a test tube after hitting the tube, listed as Enclomiphene base having prismatic crystal habit): 8 mm
- filled space of 500 mg in test tube ([4]; filled space of 500 mg in a test tube before hitting the tube, listed as Enclomiphene (example 18)): 8 mm
- filled space of 500 mg in test tube ([4]; filled space of 500 mg in a test tube before hitting the tube, listed as Enclomiphene base having prismatic crystal habit): 8 mm
- Reduced space (bulk vs tapped) ([4]; listed as Enclomiphene (example 18)): 0%
- Percussion needed? ([5]; first run): Yes
- time to pass through the funnel [5, 12]: 15 s
- Flow? [5, 13]: Yes
- flow through the funnel ([5]; listed as Enclomiphene having prismatic shaped crystal habit): flowed through the funnel
- Flow? ([5]; second run): Yes
- Percussion needed? ([5]; second run): Yes
- time to pass through the funnel ([5]; second run): 12 s
- Flow? ([5]; third run): Yes
- Percussion needed? ([5]; third run): yes
- time to pass through the funnel ([5]; third run): 14 s
- time to pass through the funnel ([5]; with percussion, listed as Enclomiphene having prismatic shaped crystal habit): 10 s
- filtration time [6]: 10 s
- stability of crystal habit [7]: remains stable at least one month

SMILES: CCN(CC)CCOc1ccc(/C(=C(/Cl)c2ccccc2)c2ccccc2)cc1 [Enclomiphene base (example 19), Enclomiphene]
- PSD D10 ([2]; 10 sec sonication): 0.100 μm
- PSD D90 ([2]; 10 sec sonication): 1.942 μm
- PSD Mean ([2]; 10 sec sonication): 0.715 μm
- PSD Median (D50) ([2]; 10 sec sonication): 0.284 μm
- PSD Mode ([2]; 10 sec sonication): 1.748 μm
- PSD D10 [2, 14]: 5.819 μm
- PSD D90 [2, 14]: 90.47 μm
- PSD Mean [2, 14]: 36.79 μm
- PSD Median (D50) [2, 14]: 24.96 μm
- PSD Mode [2, 14]: 26.14 μm
- PSD Mean [2, 15]: 36.79 μm
- PSD Median (D50) [2, 15]: 24.96 μm
- filled space of 500 mg in test tube ([4]; filled space of 500 mg in a test tube after hitting the tube, listed as Enclomiphene (example 19)): 13 mm
- filled space of 500 mg in test tube ([4]; filled space of 500 mg in a test tube after hitting the tube, listed as Enclomiphene base having non-prismatic crystal habit): 13 mm
- filled space of 500 mg in test tube ([4]; filled space of 500 mg in a test tube before hitting the tube, listed as Enclomiphene (example 19)): 17 mm
- filled space of 500 mg in test tube ([4]; filled space of 500 mg in a test tube before hitting the tube, listed as Enclomiphene having non-prismatic crystal habit): 24 mm
- Reduced space (bulk vs tapped) ([4]; listed as Enclomiphene (example 19)): 24%
- Percussion needed? ([5]; first run): Yes (if constant)
- time to pass through the funnel [5, 12]: 130 s
- Flow? [5, 13]: No (static
- flow through the funnel ([5]; listed as Enclomiphene having non-prismatic shaped crystal habit): did not flow
- time to pass through the funnel ([5]; with percussion, listed as Enclomiphene having non-prismatic shaped crystal habit): 130 s

SMILES: CCN(CC)CCOc1ccc(/C(=C(/Cl)c2ccccc2)c2ccccc2)cc1 [Enclomiphene base, Enclomiphene]
- solubility in water (in words) [8]: highly insoluble

SMILES: CCN(CC)CCOc1ccc(/C(=C(/Cl)c2ccccc2)c2ccccc2)cc1.O=C(O)CC(O)(CC(=O)O)C(=O)O [Enclomiphene citrate having needle crystals]
- water uptake at 95% RH ([3]; listed as batch 723): 2.33 % weight and 2.3 % weight
- solubility at pH 4.5 compared with Enclomiphene citrate having non-needle crystals [1]: 4 to 5 times
- solubility at pH 4.5 compared with Enclomiphene citrate having non-needle crystals ([1]; listed as Enclomiphene citrate having needle shaped crystal habit): four times higher
- Average a/a ([1]; pH = 4.5, 0 min): 0 a/a
- Average a/a ([1]; pH = 4.5, 15 min): 4135 a/a
- Average a/a ([1]; pH = 4.5, 45 min): 4024 a/a
- Average a/a ([1]; pH = 4.5, 90 min): 5109 a/a
- Average a/a ([1]; pH = 4.5, 180 min): 5079 a/a
- solubility in water compared with Enclomiphene citrate having non-needle shaped crystal habit ([8]; water, listed as Enclomiphene citrate having needle shaped crystal habit): almost double; also recorded: almost two times

SMILES: CCN(CC)CCOc1ccc(/C(=C(/Cl)c2ccccc2)c2ccccc2)cc1.O=C(O)CC(O)(CC(=O)O)C(=O)O [Enclomiphene citrate having non-needle crystals] [trans-Clomiphene monocitrate]
- moisture sorption between 0% and 65% RH ([3]; 0-65% RH): 2 % weight
- water uptake at 95% RH ([3]; listed as batch 722): 6 % weight
- Average a/a ([1]; pH = 4.5, 0 min): 0 a/a
- Average a/a ([1]; pH = 4.5, 15 min): 1185 a/a
- Average a/a ([1]; pH = 4.5, 45 min): 924 a/a
- Average a/a ([1]; pH = 4.5, 90 min): 1095 a/a
- Average a/a ([1]; pH = 4.5, 180 min): 1052 a/a
